Patent US20240228488A1 (TAKEDA PHARMACEUTICAL COMPANY LIMITED, priority 2021, published 2024)

Columns and labels:
[1] = target: human activated kallikrein enzyme (Homo sapiens, UniProt P03952); test: Plasma kallikrein inhibition, fluorogenic PFR-AMC substrate, 500 pM activated kallikrein format; format: biochemical; conditions: 500 pM activated kallikrein, 300 uM PFR-AMC, 30 min preincubation, 10 min reaction; read-out: Primary Dose Response Assay: Average EC50
Outline: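 High-enzyme format of the fluorogenic peptide assay, with EC50 taken from AMC signal: 500 pM activated kallikrein, 300 uM Pro-Phe-Arg-AMC, 30 min compound preincubation and 10 min reaction, all at room temperature, pH 7.5.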

plasma kallikrein = target: T1, plasma kallikrein (Homo sapiens, UniProt P03952); test: Neat human plasma assay, FXIIa contact pathway-activated, PFR-AMC substrate; format: biochemical; conditions: citrated human plasma 78% final, 10 nM human FXIIa, 100 μM PFR-AMC; read-out: Human Plasma Assay: IC90
T1 construct: from tissue
Outline: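 Compound inhibition of plasma kallikrein measured as PFR-AMC (100 μM) cleavage rate over 5 min at room temperature in 78% citrated human plasma activated with 10 nM FXIIa (Tris pH 7.5 buffer). IC50/IC90 from 4-parameter fit of rate versus inhibitor concentration.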

T1 sequence (P03952 391-638 limits assumed): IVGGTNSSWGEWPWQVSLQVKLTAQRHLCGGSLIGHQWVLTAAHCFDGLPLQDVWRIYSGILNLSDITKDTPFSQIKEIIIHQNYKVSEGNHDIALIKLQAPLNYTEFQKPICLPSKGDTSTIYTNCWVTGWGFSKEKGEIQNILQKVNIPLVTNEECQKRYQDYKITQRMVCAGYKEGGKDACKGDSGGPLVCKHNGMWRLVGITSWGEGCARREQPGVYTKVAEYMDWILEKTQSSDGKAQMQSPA
T1 sequence (P03952 20-390 partner limits assumed): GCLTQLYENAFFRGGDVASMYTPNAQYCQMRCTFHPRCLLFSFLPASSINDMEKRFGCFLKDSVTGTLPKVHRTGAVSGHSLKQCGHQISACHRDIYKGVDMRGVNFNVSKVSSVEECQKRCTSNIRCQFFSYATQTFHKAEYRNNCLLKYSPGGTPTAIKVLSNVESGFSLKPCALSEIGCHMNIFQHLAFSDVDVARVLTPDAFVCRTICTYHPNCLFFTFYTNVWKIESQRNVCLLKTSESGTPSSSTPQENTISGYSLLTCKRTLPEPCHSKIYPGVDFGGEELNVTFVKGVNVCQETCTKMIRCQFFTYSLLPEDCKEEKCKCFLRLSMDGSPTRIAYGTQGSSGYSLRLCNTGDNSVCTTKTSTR
Sequence of human activated kallikrein enzyme (P03952 391-638 limits assumed): as the sequence (P03952 391-638 limits assumed) above
Sequence of human activated kallikrein enzyme (P03952 20-390 partner limits assumed): as the sequence (P03952 20-390 partner limits assumed) above

SMILES | EC50 [1] [nM] | IC90 (plasma kallikrein) [nM]
O=C(Nc1cc(NCc2cn3cc(C4CC4)cc(N4CCOC4=O)c3n2)ncn1)[C@H]1C[C@@H]1c1cc(Cl)ccn1 (racemic) [Example I-173, rac-(1S*,2S*)-2-(4-chloropyridin-2-yl)-N-(6-(((6-cyclopropyl-8-(2-oxooxazolidin-3-yl)imidazo[1,2-a]pyridin-2-yl)methyl)amino)pyrimidin-4-yl)cyclopropane-1-carboxamide] | < 1 | 400 to 1500
Cc1ccnc([C@H]2C[C@@H]2C(=O)Nc2cc(OCc3cn4cc(C5CC5)cc(N5CC(=O)N(CCO)C5=O)c4n3)ncn2)n1 (racemic) [Example 33, rac-(1S*,2S*)—N-(6-((6-cyclopropyl-8-(3-(2-hydroxyethyl)-2,4-dioxoimidazolidin-1-yl)imidazo[1,2-a]pyridin-2-yl)methoxy)pyrimidin-4-yl)-2-(4-methylpyrimidin-2-yl)cyclopropane-1-carboxamide] | < 1 | 400 to 1500
Cc1ccnc([C@H]2C[C@@H]2C(=O)Nc2cc(NCc3cn4cc(C5CC5)cc(N5CCOC5=O)c4n3)ncn2)n1 [Example 376, (1S,2S)-N-(6-(((6-cyclopropyl-8-(2-oxooxazolidin-3-yl)imidazo[1,2-a]pyridin-2-yl)methyl)amino)pyrimidin-4-yl)-2-(4-methylpyrimidin-2-yl)cyclopropane-1-carboxamide] | < 1 | < 400
CCN(Cc1cn2cc(C3CC3)cc(N3CC(=O)N(C)C3=O)c2n1)c1cc(NC(=O)[C@H]2C[C@@H]2c2nccc(C)n2)nc(C)n1 [Example 360, (1S,2S)-N-(6-(((6-cyclopropyl-8-(3-methyl-2,4-dioxoimidazolidin-1-yl)imidazo[1,2-a]pyridin-2-yl)methyl)(ethyl)amino)-2-methylpyrimidin-4-yl)-2-(4-methylpyrimidin-2-yl)cyclopropane-1-carboxamide] | 1 to 10 | 400 to 1500
O=C1CN(c2cc(C3CC3)cn3cc(CNc4ccnc(NC(=O)[C@H]5C[C@@H]5c5cc(Cl)ccn5)n4)nc23)C(=O)N1 (racemic) [Example 521, rac-(1S*,2S*)-2-(4-chloropyridin-2-yl)-N-(4-(((6-cyclopropyl-8-(2,4-dioxoimidazolidin-1-yl)imidazo[1,2-a]pyridin-2-yl)methyl)amino)pyrimidin-2-yl)cyclopropane-1-carboxamide] | < 1 | 400 to 1500
N#Cc1ccc(Cl)cc1[C@H]1C[C@@H]1C(=O)Nc1cc(NCc2cn3cc(C4CC4)cc(N4CCCC4=O)c3n2)ccn1 (racemic) [Example 79, rac-(1S*2S*)-2-(5-chloro-2-cyanophenyl)-N-(4-(((6-cyclopropyl-8-(2-oxopyrrolidin-1-yl)imidazo[1,2-a]pyridin-2-yl)methyl)amino)pyridin-2-yl)cyclopropane-1-carboxamide] | < 1 | 400 to 1500
Cc1ccnc([C@H]2C[C@@H]2C(=O)Nc2cc(NCc3cn4cc(C5CC5)cc(-n5[nH]c(=O)n(C)c5=O)c4n3)ncn2)n1 (racemic) [Example 386, rac-(1S*,2S*)-N-(6-(((6-cyclopropyl-8-(4-methyl-3,5-dioxo-1,2,4-triazolidin-1-yl)imidazo[1,2-a]pyridin-2-yl)methyl)amino)pyrimidin-4-yl)-2-(4-methylpyrimidin-2-yl)cyclopropane-1-carboxamide] | 1 to 10 | 1500 to 10000
CN(C)CCc1cc(C2CC2)cn2cc(CNc3ccnc(NC(=O)[C@H]4C[C@@H]4c4cccc(Cl)c4)c3)nc12 [Example 598, (1S,2S)-2-(3-chlorophenyl)-N-(4-(((6-cyclopropyl-8-(2-(dimethylamino)ethyl)imidazo[1,2-a]pyridin-2-yl)methyl)amino)pyridin-2-yl)cyclopropane-1-carboxamide] | < 1 | < 400
O=C(Nc1cc(NCc2cn3cc(C4CC4)ccc3n2)ncn1)[C@H]1C[C@@H]1c1cc(Cl)ccc1Cl (racemic) [Example 49, rac-(1S*,2S*)-N-(6-(((6-cyclopropylimidazo[1,2-a]pyridin-2-yl)methyl)amino)pyrimidin-4-yl)-2-(2,5-dichlorophenyl)cyclopropane-1-carboxamide] | 100 to 1000 | < 400
O=C(Nc1cc(NCc2cn3cc(C4CC4)cc(N4CC(=O)N(C5CC5)C4=O)c3n2)ncn1)[C@H]1C[C@@H]1c1cccc(Cl)c1 [Example 399, (1S,2S)-2-(3-chlorophenyl)-N-(6-(((6-cyclopropyl-8-(3-cyclopropyl-2,4-dioxoimidazolidin-1-yl)imidazo[1,2-a]pyridin-2-yl)methyl)amino)pyrimidin-4-yl)cyclopropane-1-carboxamide] | 1 to 10 | 1500 to 10000
Cc1ccnc([C@H]2C[C@@H]2C(=O)Nc2cc(NCc3cn4cc(C5CC5)cc(N5CC(=O)N(C)C5=O)c4n3)nc(C3(F)COC3)n2)n1 (racemic) [Example 114, rac-(1S*,2S*)—N-(6-(((6-cyclopropyl-8-(3-methyl-2,4-dioxoimidazolidin-1-yl)imidazo[1,2-a]pyridin-2-yl)methyl)amino)-2-(3-fluorooxetan-3-yl)pyrimidin-4-yl)-2-(4-methylpyrimidin-2-yl)cyclopropane-1-carboxamide] | 1 to 10 | 400 to 1500
O=C(Nc1cc(NCc2cn3cc(C4CC4)cc(C4(O)COC4)c3n2)ccn1)[C@H]1C[C@@H]1c1cccc(Cl)c1 (racemic) [Example I-242, rac-(1S*,2S*)-2-(3-chlorophenyl)-N-(4-(((6-cyclopropyl-8-(3-hydroxyoxetan-3-yl)imidazo[1,2-a]pyridin-2-yl)methyl)amino)pyridin-2-yl)cyclopropane-1-carboxamide] | < 1 | 1500 to 10000
O=C(Nc1cc(NCc2cn3cc(C4CC4)ccc3n2)cc(=O)[nH]1)[C@H]1C[C@@H]1c1cc(Cl)ccn1 [Example 343, (1S,2S)-2-(4-chloropyridin-2-yl)-N-(4-(((6-cyclopropylimidazo[1,2-a]pyridin-2-yl)methyl)amino)-6-oxo-1,6-dihydropyridin-2-yl)cyclopropane-1-carboxamide] | < 1 | 1500 to 10000
CN1C(=O)CN(c2cc(C3CC3)cn3cc(CNc4cc(NC(=O)[C@H]5C[C@@H]5c5nc(Cl)ccc5C#N)ncn4)nc23)C1=O (racemic) [Example I-167, rac-(1S*,2S*)-2-(6-chloro-3-cyanopyridin-2-yl)-N-(6-(((6-cyclopropyl-8-(3-methyl-2,4-dioxoimidazolidin-1-yl)imidazo[1,2-a]pyridin-2-yl)methyl)amino)pyrimidin-4-yl)cyclopropane-1-carboxamide] | < 1 | 400 to 1500
Cc1nc([C@H]2C[C@@H]2C(=O)Nc2cc(NCc3cn4cc(C5CC5)cc(N5CC(=O)N(C)C5=O)c4n3)ncn2)cs1 (racemic) [Example 493, rac-(1S*,2S*)-N-(6-(((6-cyclopropyl-8-(3-methyl-2,4-dioxoimidazolidin-1-yl)imidazo[1,2-a]pyridin-2-yl)methyl)amino)pyrimidin-4-yl)-2-(2-methylthiazol-4-yl)cyclopropane-1-carboxamide] | 1 to 10 | 400 to 1500
Cc1ccnc([C@H]2C[C@@H]2C(=O)Nc2ncc(CO)c(NCc3cn4cc(C5CC5)cc(N5CC(=O)N(C)C5=O)c4n3)n2)n1 (racemic) [Example 627, rac-(1S*,2S*)—N-(4-(((6-cyclopropyl-8-(3-methyl-2,4-dioxoimidazolidin-1-yl)imidazo[1,2-a]pyridin-2-yl)methyl)amino)-5-(hydroxymethyl)pyrimidin-2-yl)-2-(4-methylpyrimidin-2-yl)cyclopropane-1-carboxamide] | < 1 | < 400
O=C(Nc1cc(N2C[C@@H](O)C[C@@H]2c2cn3cc(C4CC4)cc(N4CCOC4=O)c3n2)ncn1)[C@H]1C[C@@H]1c1cccc(Cl)c1 [Example 479, (1S,2S)-2-(3-chlorophenyl)-N-(6-((2R,4S)-2-(6-cyclopropyl-8-(2-oxooxazolidin-3-yl)imidazo[1,2-a]pyridin-2-yl)-4-hydroxypyrrolidin-1-yl)pyrimidin-4-yl)cyclopropane-1-carboxamide] | 1 to 10 | 1500 to 10000
Cc1cc(C)nc([C@H]2C[C@@H]2C(=O)Nc2cc(NCc3cn4cc(C5CC5)cc(N5CC(=O)N(C)C5=O)c4n3)ncn2)n1 (racemic) [Example 497, rac-(1S*,2S*)-N-(6-(((6-cyclopropyl-8-(3-methyl-2,4-dioxoimidazolidin-1-yl)imidazo[1,2-a]pyridin-2-yl)methyl)amino)pyrimidin-4-yl)-2-(4,6-dimethylpyrimidin-2-yl)cyclopropane-1-carboxamide] | < 1 | 400 to 1500
Cc1ccnc([C@H]2C[C@@H]2C(=O)Nc2cc(NCc3cn4cc(C5CC5)cc(N5CC(=O)N(C)C5=O)c4n3)nc(C(F)(F)F)n2)n1 (racemic) [Example 501, rac-(1S*,2S*)-N-(6-(((6-cyclopropyl-8-(3-methyl-2,4-dioxoimidazolidin-1-yl)imidazo[1,2-a]pyridin-2-yl)methyl)amino)-2-(trifluoromethyl)pyrimidin-4-yl)-2-(4-methylpyrimidin-2-yl)cyclopropane-1-carboxamide] | < 1 | 400 to 1500
Cc1ccnc([C@H]2C[C@@H]2C(=O)Nc2cc(NC(C)c3cn4cc(Cl)cc(N5CC(=O)N(C)C5=O)c4n3)nc(C)n2)n1 (stereo partly drawn) [Example 356, (1S,2S)-N-(6-((1-(6-chloro-8-(3-methyl-2,4-dioxoimidazolidin-1-yl)imidazo[1,2-a]pyridin-2-yl)ethyl)amino)-2-methylpyrimidin-4-yl)-2-(4-methylpyrimidin-2-yl)cyclopropane-1-carboxamide] | < 1 | 1500 to 10000
